{"source": "paper PMC12666486", "about": "“Novel dimeric dual-modality FAP-targeted agents with favorable tumor retention for image-guided surgery: a preclinical study” (European Journal of Nuclear Medicine and Molecular Imaging, 2025)", "key": {"[1]": {"parameters": "method as in manufacturers", "conditions": "unconjugated dyes; ref manufacturers; cited from earlier work"}, "[2]": {"conditions": "ref 3 (supplement); cited from earlier work"}, "HT1080hFAP tumor": {"system": "HT1080hFAP tumor", "assay": "Static PET/CT imaging of xenografted mice", "type": "in vivo, BALB/c nude mice", "conditions": "1.0 nmol, one mouse per compound", "experimental": "For the induction of tumor xenografts, 2 × 10^6 of HT1080hFAP or HT1080 cells in 100 μL appropriate medium were subcutaneously injected in the right and left flank of each mouse (athymic female BALB/c nude), respectively. The tumors were allowed to grow until they had reached a volume of 0.3 to 0.8 cm^3. […] To evaluate ex vivo biodistribution on tumor models, 3 mouse xenografts were injected with 0.25 nmol of Gallium-67 labelled tracer (0.4 MBq) and then sacrificed after 1 h, 4 h and 1 day. For the PET/CT imaging study one xenograft-bearing mouse (tumor volume in the range 0.6–1.0 cm^3) was injected with 1.0 nmol of Gallium-68 labelled tracer (5–8 MBq). […] The images were visualized, processed, and quantified in Mediso InterView FUSION (Mediso Medical Imaging Systems, Budapest, Hungary). […] The results were expressed as percentages of injected dose per gram tissue (% ID/g). For the comparative imaging study (SPECT and in vivo fluorescence imaging), one xenograft-bearing mouse (tumor volume in the range 0.2–0.7 cm^3) was injected with 1.5–2 nmol of Gallium-67 tracer (15–17 MBq) and imaged at various time points up to 2 days p.i. […] The images were visualized, processed, and quantified in Mediso InterView FUSION (Mediso Medical Imaging Systems, Budapest, Hungary). […] The fluorescence emission was reported as photons/s/mm^2."}, "HT1080hFAP cells": {"system": "HT1080hFAP cells", "assay": "Radioactive-based cell efflux study", "parameters": "species or system human", "conditions": "2 h post-initial incubation", "experimental": "For cell efflux studies, 1.0 × 10^6 HT1080hFAP cells were seeded in 6-well plates and cultivated for 48 h. On the day of the experiment, the cells in each well were washed twice with 1.5 mL of culturing medium and then incubated with the Gallium-68 labelled radiotracer at a final concentration of 1 nM/well for 1 h at 37 °C. The medium containing the unbound radiotracer was then replaced with either fresh medium or a 1 µM FAPI-46 solution in cell medium for blocking condition.\nSubsequently, at specific time points, the radioactive medium was removed and collected together with two PBS/0.5% (w/v) BSA washes before adding 1 mL of fresh medium or FAPI-46 blocking solution. Finally, 2 h after the end of the first incubation, the cells were lyzed with 1 mL of 1 M NaOH. All collected fractions were measured in the γ-counter and the percentage of cell-associated activity at different time points relative to the total, corresponding to 1 h after incubation, was reported. The number of experimental replicates performed for each assay is specified in the respective figure legends."}}}
{"smiles": "CC1(C)C(=CC=C2CCCC(C=CC3=[N+](CCCCCC(=O)[O-])c4ccc(S(=O)(=O)[O-])cc4C3(C)C)=C2Oc2ccc(S(=O)(=O)[O-])cc2)N(CCCCS(=O)(=O)[O-])c2ccc(S(=O)(=O)[O-])cc21.[Na+].[Na+].[Na+].[Na+]", "note": "[IRDye-800CW]", "values": [{"measurement": "Stokes shift", "setting": "[1]", "value": 17}, {"measurement": "λEm (nm)", "setting": "[1]", "value": 792, "unit": "nm"}, {"measurement": "λEx (nm)", "setting": "[1]", "value": 775, "unit": "nm"}]}
{"smiles": "CC(=O)NC1CCCN(O)C(=O)/C=C(/C)CCOC(=O)C(NC(C)=O)CCCN(O)C(=O)/C=C(/C)CCOC(=O)C(NC(C)=O)CCCN(O)C(=O)/C=C(/C)CCOC1=O", "note": "(centres unmarked) [TAFC]", "values": [{"measurement": "LogDpH7.4", "setting": "[2]", "value": "-2.08 ± 0.02"}]}
{"smiles": "CC1(C)C(=CC=C2CCCC(C=CC3=[N+](CCC[N+](C)(C)C)c4ccc(S(=O)(=O)O)cc4C3(C)C)=C2Oc2ccc(CCC(=O)O)cc2)N(CCC[N+](C)(C)C)c2ccc(S(=O)(=O)O)cc21", "note": "[ZW800]", "values": [{"measurement": "Stokes shift", "setting": "[1]", "value": 18}, {"measurement": "λEm (nm)", "setting": "[1]", "value": 786, "unit": "nm"}, {"measurement": "λEx (nm)", "setting": "[1]", "value": 768, "unit": "nm"}]}
{"smiles": "CN(CCCN1CCN(C(=O)CN2CCN(CC(=O)[O-])CCN(CC(=O)[O-])CCN(CC(=O)[O-])CC2)CC1)c1ccc2nccc(C(=O)NCC(=O)N3CC(F)(F)C[C@H]3C#N)c2c1.[68Ga+3]", "note": "[[^68Ga]Ga-FAPI-46]", "values": [{"measurement": "%ID/g in FAP(+)T (PET/CT, manually drawn ROI)", "setting": "HT1080hFAP tumor; 1h p.i.", "value": 3.4, "unit": "%ID/g"}, {"measurement": "%ID/g in FAP(+)T (PET/CT, manually drawn ROI)", "setting": "HT1080hFAP tumor; 2h p.i.", "value": 3.1, "unit": "%ID/g"}, {"measurement": "Retained activity, % of the internalized fraction", "setting": "HT1080hFAP cells; blocking with 1 µM FAPI-46, 1 nM", "value": "9.4 ± 1.5", "unit": "%"}, {"measurement": "Retained activity, % of the internalized fraction", "setting": "HT1080hFAP cells; without blocking, 1 nM", "value": "21.9 ± 1.4", "unit": "%"}]}
